In patent US20240327493A1 (GEORGE MASON UNIVERSITY, priority 2023, published 2024):
Entries after “also recorded” stand apart in the source; their conditions may differ. Where two headings read alike, the source gives them in different places.

How the values were obtained:
[1] = test system: human PBMCs co-cultured with OVCAR8 cells; test: Co-culture of OVCAR8 cells and stimulated human PBMCs, 10:1 OVCAR8:PBMC ratio; format: cell-based; conditions: MN1.4 450, 100 or 10 μM, 24 hours, FIG. 10A
Protocol: For this model, PBMCs and cancer cells were both stimulated prior to co-culture to promote expression of PD-1 and PD-L1, respectively.
Stimulation of the PBMCs causes them to release inflammatory cytokines including IL-2 and TNFα,
OVCAR8 cells, generously provided by the Gottesman Lab (National Institutes of Health, Bethesda, MD, USA), and MDA-MB-231 cells (American Type Culture Collection, Rockville, MD, USA) were cultured in Gibco RPMI 1640 media (ThermoFisher Scientific, Cat. No. 11-875-093) supplemented with 10% Gibco fetal bovine serum (ThermoFisher Scientific, Cat. No. 10437028), and 1% penicillin/streptomycin (10,000 U/mL pen, 10 mg/mL strcp) from MilliporeSigma (Burlington, MA, USA, Cat. No. P4333). Cells were cultured at 37° C. and 5% CO2. […]
For co-culture experiments with excess OVCAR8 ratios, OVCAR8 cells were seeded at a density of 2×10^5 cells/mL on a 6-well plate and allowed to adhere overnight. […] On Day 3, concentrations of PBMCs and OVCAR8 cells (harvested from a control well) were measured using the QuadCount Automated Cell Counter (Accuris Instruments). The concentration of PBMCs required for a 10:1 OVCAR8:PBMC ratio was calculated from the OVCAR8 concentration. […]
For experiments analyzed via IL-2 PCR-ELISA, the levels of IL-2 in the collected supernatants were measured using the IL-2 Human ProQuantum Immunoassay Kit (ThermoFisher Scientific, Cat. No. A35603). […]

[2] = human serum diluted 1:4 in RPMI, ESI-MS, 0, 6, 24, 48 hours
Protocol: Angiotensin I was spiked in and used for normalization.
Human serum was diluted 1:4 in Gibco RPMI 1640 media (ThermoFisher Scientific, Waltham, MA, USA, Cat. No. 11-875-093) for a total of 1 mL and incubated at 37° C. for 15 minutes prior to time course. Next, 1 μL of the peptide stock was added to warmed serum for a final concentration of […] in the master mix. The rest of the time course was performed at room temperature. For each time point, aliquots of 100 μL were removed from the master mix and added to 200 μL of 3% trifluoroacetic acid. Samples were incubated on ice for 15 minutes before centrifugation at 16,000×g for 2.5 minutes. Supernatants were transferred to a clean tube and prepared for desalting via C18 column by adding 100 μL of sample buffer (20% acetonitrile, 2% trifluoroacetic acid) to supernatants before storage at—20° C. overnight. Samples were then processed through Pierce C18 spin columns (ThermoFisher Scientific, Cat. No. 89870) according to the manufacturer's instructions. […]
For ESI-MS analysis, serum stability samples were run on an Orbitrap Exploris 480 (ThermoFisher Scientific). […] ThermoFisher's Xcalibur 4.0 Data System was used for peptide quantification. […] The samples were batch reprocessed for quantification via peak area. Peptide abundances were normalized based on Angiotensin I abundance and quantified relative to initial abundance.

[3] = human serum diluted 1:4 in RPMI, MALDI-TOF-MS, up to 6 hours
Protocol: Human serum was diluted 1:4 in Gibco RPMI 1640 media (ThermoFisher Scientific, Waltham, MA, USA, Cat. No. 11-875-093) for a total of 1 mL and incubated at 37° C. for 15 minutes prior to time course. Next, 1 μL of the peptide stock was added to warmed serum for a final concentration of […] in the master mix. The rest of the time course was performed at room temperature. For each time point, aliquots of 100 μL were removed from the master mix and added to 200 μL of 3% trifluoroacetic acid. Samples were incubated on ice for 15 minutes before centrifugation at 16,000×g for 2.5 minutes. Supernatants were transferred to a clean tube and prepared for desalting via C18 column by adding 100 μL of sample buffer (20% acetonitrile, 2% trifluoroacetic acid) to supernatants before storage at—20° C. overnight. Samples were then processed through Pierce C18 spin columns (ThermoFisher Scientific, Cat. No. 89870) according to the manufacturer's instructions. Desalted samples were dried under nitrogen and stored at −20° C. until mass spectrometry analysis.
For MALDI-TOF-MS analysis, serum stability samples were reconstituted in 200 μL of 0.1% formic acid. Samples were then diluted 1:10 in a MALDI matrix containing a 50 fmol/μL solution of Angiotensin I as a control. […]

CC[C@H](C)[C@@H]1NC(=O)[C@H](CCSC)NC(=O)[C@H](C)NC(=O)[C@H](CCCNC(=N)N)NC(=O)[C@@H](N)CSSC[C@@H](C(=O)O)NC(=O)[C@H]([C@@H](C)CC)NC(=O)[C@H](CCCNC(=N)N)N(C)C(=O)[C@H](CCCCN)NC(=O)[C@H](Cc2ccc(O)cc2)NC(=O)[C@H](CC(=O)O)NC(=O)[C@H](C)NC(=O)CNC(=O)CNC(=O)[C@H](Cc2ccc(O)cc2)NC(=O)[C@H](CO)NC1=O [SEQ ID NO. 5, CRAMISYGGADYKXIC]
IL-2 secretion [1]: secretion of IL-2 reduced in a dose dependent manner | IL-2 secretion ([1]; listed as MN1.4): enhanced the suppression of IL-2 secretion by T cells in a dose-dependent manner; also recorded: decreased released IL-2 in a dose dependent manner | Degradation in serum [2]: not significantly degraded at 48 hours | Degradation in serum [3]: still present after 6 hours in serum without significant degradation
